Consider 17 molecules from patent publication US9994525B2, “H3 antagonists containing phenoxypiperidine core structure” (RICHTER GEDEON NYRT., priority 2013, dated 2018).

Where a name gives a salt, the structure may show the parent alone.

In data set [1] the target is rat histamine H3 receptors (Rattus norvegicus (Rat), UniProt Q9QYN8). As to the kind of experiment: rat histamine H3 receptor in vitro binding assay, N-α-[Methyl-3H]methylhistamine radioligand, rat cortex membrane. To be noted: 1 nM radioligand, read-out: rH3 Ki. The procedure:
The in vitro affinity of the compounds of the present invention for rat histamine H3 receptors can be determined according to the following procedure.
The rat histamine H3 receptor membrane was prepared as previously described by Witte et al. (British Journal of Pharmacol. 1-14, 2006). Male Sprague-Dawley rats were decapitated, their brains were removed and the cortex was isolated. The obtained tissues were homogenized in Tris-EDTA buffer (50 mM Tris-HCl, pH 7.4, 5 mM EDTA, 2 aprotinin, 1 mM benzamidine, 2 μg/ml leupeptin, 1 pepstatin) by a blender homogenizer (Ultra-Turrax). The homogenate was centrifuged at 40000 g for 20 min at 4° C. The membrane pellets were further purified by repeating the above homogenization and centrifugation steps. Final membrane preparations were obtained by rehomogenizing the pellets in 1:10 ratio in Tris-EDTA buffer (50 mM Tris-HCl, pH 7.4, 5 mM EDTA). The so obtained membrane preparation was divided into aliquots, flash frozen and stored at −80° C. until use. Protein content was determined by Lowry method using bovine serum albumin (BSA) as standard.
Receptor binding assays were performed in at least 5 concentrations, with two parallel samples in each concentrations, in at least two independent experiments using the binding buffer (50 mM Tris-HCl, pH 7.4, 5 mM MgCl2), rat H3 membrane (140 μg protein/tube), and N-α-[Methyl-^3H]methylhistamine dihydrochloride (1 nM) as radioligand. Non-specific binding was determined in the presence of 10 μM thioperamide. The samples were incubated in a final volume of 0.50 ml for 30 min at 25° C. Binding reactions were terminated by rapid filtration through UniFilter® GF/B™ fiber glass filters presoaked for at least 2 h in 0.5% polyethylene imine (PEI). The filterplates were washed nine times with 0.5 ml of ice-cold washing buffer (50 mM Tris-HCl, pH 7.4, 5 mM MgCl2, 10 μg/ml saponine). The filterplates were dried at 50° C. for 45 min and 40 μl of Microscint20 (Packard) scintillation cocktail was added to each well. Filters radioactivity was determined by TopCount (Packard) scintillation counter.
The ligand displacement by the compounds of the present invention was determined in at least two parallel experiments. The specific radioligand binding was defined as the difference between the total binding and the non-specific binding determined in the presence of excess of unlabelled ligand or test compounds used to specifically displace the radioligand. Results were expressed as a percent inhibition of specific binding obtained in the presence of test compounds. IC50 values were calculated from concentration-displacement curves by sigmoidal fitting using GraphPad Prism Software 4.0. Inhibition constants (Ki values) were calculated using the Cheng-Prusoff equation (Cheng Y C and Prusoff W H (1973) Biochem Pharmacol 22:3099-3108).
The affinity at rat H3 receptors of compounds of the present invention is illustrated by the following table.

For data set [2] the following is noted: cited from earlier work.
The next data set has as its target hERG potassium channel (Homo sapiens (Human), UniProt Q12809). The settings on record: cited from earlier work.
Data set [3] has as its system extracellular histamine (HA) levels. Put plainly: cerebral microdialysis, extracellular histamine (HA) levels in prefrontal cortex and hippocampus. The format is in vivo, male Wistar rats. To be noted: rats. The text has this:
(§1) Prefrontal cortex and hippocampus, the two brain regions play important roles in cognition processes. Both histamine (HA) and acetylcholine (ACh) are transmitters playing important roles in cognition. The hypofunction of the central cholinergic and histaminergic systems is considered one of the pathogenic causes of the cognitive deficits characterizing dementias. Alterations in the extracellular levels of HA and ACh were investigated after single and simultaneous treatment with histamine H3 antagonists and acetylcholine esterase inhibitors (AChEIs) in the prefrontal cortex and hippocampus of conscious, freely moving male Wistar rats (4-6 animals/group) by cerebral microdialysis technique.
(§2) Microdialysis probes were implanted in the medial prefrontal cortex (MPFC) and hippocampus (HC), and perfused with artificial AChEI-free cerebrospinal fluid (aCSF). Compounds examined in the present study were administered in 1% hydroxypropyl-methylcellulose (HPMC) and 5% polyoxiethelen(8)-sorbitane-monooleat (Tween 80) into the stomach via surgically implanted catheter.
(§3) Thirty-min samples were collected and the temporal changes in the extracellular ACh and histamine HA were followed by high-sensitivity and selectivity liquid chromatography coupled with mass spectrometry/mass spectrometry (LC-MS/MS) analytical method. […]

For data set [4] the following is noted: rat, in vivo.
In data set [5] the test system is extracellular acetylcholine (ACh) levels. Put plainly: cerebral microdialysis, extracellular acetylcholine (ACh) levels in prefrontal cortex and hippocampus. Format: in vivo, male Wistar rats. The settings on record: rats.
Description: as §1, §2, §3

Setting [6] is: single treatment, 0.5 and 1 mg/kg into the stomach, MPFC and HC.

rat histamine H3 receptors, sequence (Q9QYN8 whole entry): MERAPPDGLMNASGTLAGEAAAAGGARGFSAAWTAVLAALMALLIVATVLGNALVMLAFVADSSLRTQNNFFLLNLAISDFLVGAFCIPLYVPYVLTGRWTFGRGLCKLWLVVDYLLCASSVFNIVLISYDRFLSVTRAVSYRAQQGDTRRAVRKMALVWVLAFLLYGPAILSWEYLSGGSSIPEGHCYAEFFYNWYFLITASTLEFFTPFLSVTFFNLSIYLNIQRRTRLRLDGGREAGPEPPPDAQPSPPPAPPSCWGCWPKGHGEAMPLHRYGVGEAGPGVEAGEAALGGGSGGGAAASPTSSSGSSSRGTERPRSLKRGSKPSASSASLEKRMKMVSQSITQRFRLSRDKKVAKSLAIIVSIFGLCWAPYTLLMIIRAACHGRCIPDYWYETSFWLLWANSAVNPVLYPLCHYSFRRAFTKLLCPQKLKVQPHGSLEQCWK
hERG potassium channel, sequence (Q12809 whole entry): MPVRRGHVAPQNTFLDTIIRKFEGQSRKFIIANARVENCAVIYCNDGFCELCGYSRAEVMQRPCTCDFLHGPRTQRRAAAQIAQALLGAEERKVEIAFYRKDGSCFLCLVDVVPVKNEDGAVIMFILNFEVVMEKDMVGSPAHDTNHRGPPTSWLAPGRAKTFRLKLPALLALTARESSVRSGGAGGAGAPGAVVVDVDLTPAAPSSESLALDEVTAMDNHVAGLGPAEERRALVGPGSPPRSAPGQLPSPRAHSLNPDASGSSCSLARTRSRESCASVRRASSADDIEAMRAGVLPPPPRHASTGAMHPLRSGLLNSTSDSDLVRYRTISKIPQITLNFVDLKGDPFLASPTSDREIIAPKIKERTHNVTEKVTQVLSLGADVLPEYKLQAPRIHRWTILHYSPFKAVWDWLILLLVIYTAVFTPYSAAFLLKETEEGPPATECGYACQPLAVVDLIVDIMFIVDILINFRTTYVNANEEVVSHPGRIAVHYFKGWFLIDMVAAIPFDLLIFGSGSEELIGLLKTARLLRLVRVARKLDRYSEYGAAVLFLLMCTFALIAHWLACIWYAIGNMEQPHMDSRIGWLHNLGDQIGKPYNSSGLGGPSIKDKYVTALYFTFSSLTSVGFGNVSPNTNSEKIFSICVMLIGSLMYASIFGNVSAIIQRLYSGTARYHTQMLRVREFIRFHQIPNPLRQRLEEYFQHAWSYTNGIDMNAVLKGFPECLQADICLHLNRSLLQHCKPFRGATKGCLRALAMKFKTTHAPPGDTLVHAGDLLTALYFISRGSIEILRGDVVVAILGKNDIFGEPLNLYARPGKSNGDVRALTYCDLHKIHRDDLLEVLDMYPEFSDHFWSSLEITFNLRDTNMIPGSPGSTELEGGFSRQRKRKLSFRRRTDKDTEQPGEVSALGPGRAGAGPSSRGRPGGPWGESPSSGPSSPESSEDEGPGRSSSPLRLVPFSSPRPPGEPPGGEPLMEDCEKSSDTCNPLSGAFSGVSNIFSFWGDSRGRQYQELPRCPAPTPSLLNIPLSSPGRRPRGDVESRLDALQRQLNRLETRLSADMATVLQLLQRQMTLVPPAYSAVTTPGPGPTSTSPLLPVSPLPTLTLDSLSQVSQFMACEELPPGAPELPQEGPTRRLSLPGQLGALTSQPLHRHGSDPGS

Usually Ki stands for the equilibrium dissociation constant of an inhibitor or competing ligand from its target. Turning to `CC(C)(C)OC(=O)N1CCC(Oc2ccc(OCCCN3CCCCC3)cc2)CC1` [Example 1, 4-{4-[3-(piperidin-1-yl)-propoxy]-phenoxy}-piperidine-1-carboxylic acid tert-butyl ester], the Ki in data set [1] is 10 to 50 nM.
Regarding `CC(=O)N1CCC(Oc2ccc(OCCCN3CCCCC3)cc2)CC1` [Example 3, 1-(4-{4-[3-(piperidin-1-yl)-propoxy]-phenoxy}-piperidin-1-yl)-ethanone hydrochloride salt], the Ki in data set [1] is under 10 nM.
`CCNC(=O)N1CCC(Oc2ccc(OCCCN3CCC[C@H]3C)cc2)CC1` [Example 15, N-ethyl-4-(4-{3-[(2R)-2-methyl-pyrrolidin-1-yl]-propoxy}-phenoxy)-piperidine-1-carboxamide]: in data set [1], the Ki is under 10 nM.
For the molecule `CC1(C(=O)N2CCC(Oc3ccc(OCCCN4CCCCC4)cc3)CC2)CC1` [Example 5, (1-methyl-cyclopropyl)-(4-{4-[3-(piperidin-1-yl)-propoxy]-phenoxy}-piperidin-1-yl)-methanon hydrochloride salt], the Ki in data set [1] is under 10 nM.
On to `C[C@@H]1CCCN1CCCOc1ccc(OC2CCN(C(=O)C3(C)CC3)CC2)cc1` [Example 13, (1-methyl-cyclopropyl)-[4-(4-{3-[(2R)-2-methyl-pyrrolidin-1-yl]-propoxy}-phenoxy)-piperidin-1-yl]-methanone hydrochloride salt], for which, in data set [1], the inhibition constant Ki is under 10 nM.
For `CCOC(=O)N1CCC(Oc2ccc(OCCCN3CCCCC3)cc2)CC1` [Example 6, Ethyl-4-{4-[3-(piperidin-1-yl)-propoxy]-phenoxy}-piperidine-1-carboxylate hydrochloride salt], the Ki in data set [1] is 10 to 50 nM.
`C[C@@H]1CCCN1CCCOc1ccc(OC2CCN(C(=O)OC(C)(C)C)CC2)cc1` [Example 9, 4-(4-{3-[(2R)-2-methyl-pyrrolidin-1-yl]-propoxy}-phenoxy)-piperidine-1-carboxylic acid tert-butyl ester]: the Ki in data set [1] is 10 to 50 nM.
Take `CCNC(=O)N1CCC(Oc2ccc(OCCCN3CCCCC3)cc2)CC1` [Example 7, N-ethyl-4-{4-[3-(piperidin-1-yl)-propoxy]-phenoxy}-piperidine-1-carboxamide]: the Ki in data set [1] was 10 to 50 nM.
On the same count and under the same terms, as for `CCOC(=O)N1CCC(Oc2ccc(OCCCN3CCC[C@H]3C)cc2)CC1` [Example 14, ethyl-4-(4-{3-[(2R)-2-methyl-pyrrolidin-1-yl]-propoxy}-phenoxy)-piperidine-1-carboxilate hydrochloride salt], the figure is under 10 nM.
As for `C[C@@H]1CCCN1CCc1cc2cc(-c3ccc(C#N)cc3)ccc2o1` [ABT-239], the plasma protein binding entry in data set [2] was “High”. In addition, the “cardiovascular side-effects, interaction with the hERG potassium channel” value on hERG potassium channel is given as “interaction with the hERG potassium channel”.
Take `O=C(C1CCC1)N1CCC(Oc2ccc(OCCCN3CCCCC3)cc2)CC1` [Example 4, Cyclobutyl-(4-{4-[3-(piperidin-1-yl)-propoxy]-phenoxy}-piperidin-1-yl)-methanone hydrochloride salt]: the Ki in data set [1] fell in the range of 10 to 50 nM.
On to `CC(=O)N1CCC(Oc2ccc(OCCCN3CCC[C@H]3C)cc2)CC1` [Example 11, 1-[4-(4-{3-[(2R)-2-methyl-pyrrolidin-1-yl]-propoxy}-phenoxy)-piperidin-1-yl]-ethanone hydrochloride salt], for which, in data set [1], the Ki fell in the range of 10 to 50 nM. In data set [3] (simultaneous administration with donepezil), the “HA release evoked by Compound 11” value is “not changed”. For the same molecule, the “extracellular HA level” value in data set [3] (setting [6]) is “rapid and expressed increase”. Besides, the “plasma and brain levels” value in data set [4] was “did not change”. Also, in data set [5] (simultaneous administration of 0.5 mg/kg donepezil and 0.5 or 1 mg/kg Compound 11, MPFC and HC), the “extracellular ACh” value was “supra-additive increase”. Also, the ACh levels result in data set [5] (setting [6]) is listed as “No significant changes”.
For `c1cc(OC2CCNCC2)ccc1OCCCN1CCCCC1` [Example 2, 1-{3-[4-(piperidin-4-yl-oxy)-phenoxy]-propyl}-piperidine dihydrochloride salt], the Ki in data set [1] was in the range of 10 to 50 nM.
For `CCN(C)C(=O)N1CCC(Oc2ccc(OCCCN3CCC[C@H]3C)cc2)CC1` [Example 16, N-ethyl-N-methyl-4-(4-{3-[(2R)-2-methyl-pyrrolidin-1-yl]-propoxy}-phenoxy)-piperidine-1-carboxamide hydrochloride salt], the Ki in data set [1] was under 10 nM.
`CCN(C)C(=O)N1CCC(Oc2ccc(OCCCN3CCCCC3)cc2)CC1` [Example 8, N-ethyl-N-methyl-4-{4-[3-(piperidin-1-yl)-propoxy]-phenoxy}-piperidine-1-carboxamide hydrochloride salt]: in data set [1], the Ki lay within 10 to 50 nM.
In the case of `C[C@@H]1CCCN1CCCOc1ccc(OC2CCN(C(=O)C3CCC3)CC2)cc1` [Example 12, cyclobutyl-[4-(4-{3-[(2R)-2-methylpyrrolidin-1-yl]-propoxy}-phenoxy)-piperidin-1-yl]-methanone hydrochloride salt], the Ki in data set [1] is under 10 nM.
On the same count and under the same terms, under `C[C@@H]1CCCN1CCCOc1ccc(OC2CCNCC2)cc1` [Example 10, 4-(4-{3-[(2R)-2-methyl-pyrrolidin-1-yl]-propoxy}-phenoxy)-piperidine dihydrochloride salt] stands under 10 nM.
